# Experimental data: article PMC12285946, “Investigation of the Cytotoxicity of Cu(II), Au(III), and Pd(II) Complexes with 2,4-Dithiouracil and 6-Propyl-2-thiouracil Derivatives” (BioTech, 2025)
# Legend:
# [1] = tested on: Vero cell line (kidney cells from African green monkey); assay: MTT cell viability assay, Vero normal cell line; assay type: cell-based; settings: for Cytotoxic Concentration (CD50): Vero normal cell line, MTT, 72 h
# Method: (§1) To assess the in vitro biocompatibility of the tested compounds, a series of cell viability assays were conducted on human cervical carcinoma cell lines (HeLa), as well as on normal Vero cells (kidney cells from the African green monkey). All cell lines were obtained from the German Collection of Microorganisms and Cell Cultures (DSMZ GmbH, Braunschweig, Germany). The cell cultures were maintained in DMEM (Dulbecco’s Modified Eagle Medium) (Gibco Thermofisher Scientific, 168 Third Avenue, Waltham, MA, USA, 02451) growth medium, supplemented with 10% fetal bovine serum (FBS, Sigma-Aldrich, Darmstadt, Germany) and 5% L-glutamine (Sigma-Aldrich, Darmstadt, Germany) and incubated under controlled conditions of 37 °C in a humidified atmosphere with 5% CO2.
# (§2) The experimental approach included a series of cytotoxicity assays to determine the extent of cell proliferation inhibition by the synthesized complexes and their free ligands. Cell viability was quantified using a standard MTT-based colorimetric assay. Exponentially growing cells were harvested and seeded (100 μL per well) into 96-well plates at an appropriate density—3 × 10^5 for HeLa and Vero cells. The cells were exposed to various concentrations of the tested compounds, ranging from 0.0001 to 10 mg/mL, and incubated for 72 h.
# (§3) Statistical significance was established at p ≤ 0.05.
# [2] = tested on: HeLa cell line (human cervical carcinoma); assay: MTT cell viability assay, HeLa tumor cell line; assay type: cell-based; settings: for Cytotoxic Concentration (CD50): MTT, 72 h
# Method: as §1, §2, §3
# HeLa cell lines = settings: cited from earlier work
smiles,measurement,setting,value
"Sc1ccnc(S)n1 [2,4-dithiouracil]",Cytotoxic Concentration (CD50),[1],1.421 mM
same,Cytotoxic Concentration (CD50),[2],0.3167 mM
CCCc1cc(=O)[nH]c(=S)[nH]1 [6-propyl-2-thiouracil],Cytotoxic Concentration (CD50),[1],0.6068 mM
same,"cytotoxic activity relative to 2,4-dithiouracil",[1]; normal cell line (Vero),two times stronger
same,"cytotoxic activity relative to 2,4-dithiouracil",[2],three times
same,Cytotoxic Concentration (CD50),[2],0.0955 mM
N.N.[Cl][Pt][Cl] [Cisplatin],reduction in cell viability,"HeLa cell lines; 0.15 mg/mL, 24 h, HeLa",about 10%
same,concentration leading to a significant loss of cell viability,"HeLa cell lines; HeLa, on average",0.003 mg/mL
same,concentration needed for complete inhibition of viability,HeLa cell lines; human cervical carcinoma cell line,higher than 1.5 mg/mL
N.N.O=C([O-])C1(C(=O)[O-])CCC1.[Pt+2] [carboplatin],concentration yielding complete inhibition of cell viability,HeLa cell lines; HeLa,1 mg/mL
